Converted amounts (≈) assume the structure as drawn. Residues, ends and D or L forms follow the SMILES beside them.
Columns and labels:
E. coli DH5α = conditions: microdilution; reported before; cited from earlier work
[1] = tested on: E. coli L-WF+ (cell wall-deficient L-form, W1655 F+); assay type: cell-based; conditions: microdilution, 96-well, 0.05 to 100 μM peptide, BHI with supplements, OD550 0.4, 18 hours, 37°C; triplicates, at least three independent experiments
Description: (§1) For L-form bacteria BHI medium was supplemented with […] penicillin and additional 50 mg/ml sucrose and 30 mg/ml yeast extract in the case of B. subtilis L-170. L-form cells were cultivated as described above using flat bottom glass flasks and OD was measured at 550 nm (OD550 = 1 corresponds to 3.92 × 10^8 CFU/ml L-170 and 9.75 × 10^8 CFU/ml L-WF+).
(§2) To determine the minimal inhibitory peptide concentration (MIC) of bacterial growth we applied a microdilution technique as described previously. Briefly, the antimicrobial activity was tested against L-form bacteria in 96-well plates with final peptide concentrations ranging from 0.05 to 100 μM. Cultures were diluted to OD550 0.4 in BHI containing strain-specific supplements. Cells were grown for 18 hours at 37°C and 180 rpm. Peptide activity was tested in triplicates in at least three independent experiments.

[2] = tested on: B. subtilis L-170 (cell wall-deficient L-form); assay type: cell-based; conditions: microdilution, 96-well, 0.05 to 100 μM peptide, BHI with supplements, OD550 0.4, 18 hours, 37°C; triplicates, at least three independent experiments
Description: as §1, §2

B. subtilis 168 = experiment: Cardiolipin staining with NAO, fluorescence microscopy; assay type: cell-based; conditions: 500 nM NAO 60 min, then 12 μM peptide 30 min, room temperature; 520 and 640 nm
Description: Cells were first incubated with the dye for 60 minutes in the dark, at room temperature at 600 rpm (ensuring sufficient aeration). Afterwards, cWFW was added at a final concentration of 12 μM and co-incubated with NAO for another 30 minutes under the same conditions.
Specific staining of CL with NAO has been shown before and is neither influenced by fixation nor depolarisation of the membrane. The emission shift from green to red fluorescence (513 nm to 640 nm) was reported to be exclusive for binding to CL and is caused by narrow stacking of dye molecules. Images were captured using a Zeiss Axiovert M200 inverted fluorescence microscope and an LSM 510 ConfoCor2 (Germany) with plan-apochromat 63, 100×/1.4 objective, respectively, and processed with ImageJ.

[3] = Calcein dye release from liposomes; assay type: biochemical; conditions: 10 μM peptide, 1 min, Tris buffer pH 7.4, room temperature; for permeabilisation (calcein dye release): fluorescence; for dye release: cardiolipin 40 mol%
Source text: (§3) Large unilamellar vesicles (LUVs) were used for isothermal titration calorimetry studies and prepared as described before. […] As CL potentially carries two negative charges it was applied at half POPG concentrations to give liposomes with identical surface charge. Subsequently, chloroform was evaporated under nitrogen stream and obtained lipid films were dried under high vacuum for several hours and rehydrated in phosphate buffer by thorough vortexing. The solution was heated 2–3 times in a water bath to 40°C to facilitate resuspension. POPE-LUVs were obtained after 35-fold extrusion through two stacked polycarbonate membranes (100 nm pore size) using a mini extruder (Avestin, Switzerland). The procedure gives vesicles with a diameter of 90–120 nm as determined with dynamic light scattering (DLS) performed on a Zetasizer Nano ZS ZEN 3600 (Malvern Instruments, UK). Large liposomes for dye release experiments were prepared with a solution of 80 mM calcein in 10 mM Tris buffer, 0.1 mM EDTA, pH 7.4 and treated to remove non-incorporated dye as described before.
Peptide-induced calcein release was monitored fluorimetrically by measuring the time-dependent decrease in self-quenching (ex 490 nm, em 514 nm) at room temperature on a LS 50B spectrofluorimeter (Perkin Elmer, Germany) as described before. Lipid concentration was 25 μM in Tris buffer (10 mM Tris, 154 mM NaCl, pH 7.4) and peptide concentrations ranged from 1 to 200 μM. The fluorescence intensity corresponding to 100% release was determined by addition of a 10% Triton X-100 solution. In this study, calcein release was analysed after 1 min of incubation with 10 μM peptide and 25 μM liposomal suspensions.

B. subtilis DSM 347 = conditions: microdilution; reported before; cited from earlier work
ITC binding to LUVs = conditions: 25°C; for K 0 (hydrophobic partition coefficient): phosphate buffer pH 7.4, surface partition model; for ΔG°: calculated as -RT ln(55.5 M × K 0); for -TΔS°: from Gibbs-Helmholtz equation
Source text: as §3
High-sensitivity isothermal titration calorimetry (ITC) experiments to characterise peptide interaction with model membranes were performed at 25°C on a VP-ITC instrument (MicroCall, Malvern Instruments, UK). Binding data were generated as described before. Prior to use, solutions were gently degassed under vacuum. 10 μl aliquots of 5 to 10 mM lipid vesicles were titrated into a 40 μM peptide solution inside the calorimeter cell (1.4 ml) while the reaction mixture was continuously stirred at 307 rpm. Time intervals between injections were adjusted to 10 min which was sufficient for the heat signal to return to baseline level. Automated baseline adjustment and peak integration were accomplished with the public-domain software NITPIC [32].
Binding parameters, such as hydrophobic partition coefficient (K 0) and enthalpy of binding (ΔH°), were derived by applying a surface partition equilibrium under the specific condition that peptide adsorption is linearly related to the peptide concentration immediately above the membrane surface. This concentration in close proximity to the membrane is determined by electrostatic interactions and depends on the bulk concentration of peptide, peptide charge and membrane surface potential. Negatively charged lipid layers attract cationic peptides. Consequently, the membrane surface concentration is enhanced compared to that in the bulk solution. After binding of cationic peptides to an electrically neutral membrane it becomes positively charged which results in a repulsion of further peptides from the membrane surface. Using the Gouy—Chapman theory which accounts for electrostatic effects, it is possible to calculate the peptide surface concentration and to determine the partition coefficient K 0 [33]. Nonlinear least-squares data fitting was performed with Excel 2010 (Microsoft) using the Solver add-in (Frontline Systems). The Gibbs free energy was calculated according to ΔG° = -RT ln(55.5 M × K 0), where 55.5 M is the molar concentration of water in the aqueous phase. Finally, the entropic contribution to membrane partitioning,-TΔS°, was derived from the Gibbs-Helmholtz equation, ΔG° = ΔH°-TΔS°.

mammalian cells = conditions: cited from earlier work
Source text: The structure-activity-relationship of small cyclic R-,W-rich peptides is well characterised. […] With cationic charge and high amphipathicity the cyclic peptide features the structural determinants for membrane activity.

[4] = LUVs of POPC/CL (87.5/12.5 mol%)
[5] = LUVs of POPE/CL (87.5/12.5 mol%)

N=C(N)NCCC[C@@H]1NC(=O)[C@H](CCCNC(=N)N)NC(=O)[C@H](Cc2c[nH]c3ccccc23)NC(=O)[C@H](Cc2ccccc2)NC(=O)[C@H](Cc2c[nH]c3ccccc23)NC(=O)[C@H](CCCNC(=N)N)NC1=O [cWFW] (cyclo(FWRRRW))
MIC E. coli DH5α (E. coli DH5α): 3 µM (≈ 2.96 µg/mL)
MIC E. coli L-WF+ [1]: 12 µM (≈ 11.9 µg/mL)
MIC B. subtilis L-170 [2]: 6 µM (≈ 5.93 µg/mL)
effect on NAO fluorescence (cardiolipin staining) (B. subtilis 168): significant decrease in NAO fluorescence intensity at both wavelengths
peptide-induced dye release ([3]; CL content of 12.5% (matrix lipid not restated, follows sentence on POPE systems), 25 μM lipid): 18%
permeabilisation (calcein dye release) ([3]; PC/7.5% CL, 25 μM lipid): 15%
permeabilisation (calcein dye release) ([3]; PC/25% PG, 25 μM lipid): 8%
permeabilisation (calcein dye release) ([3]; PE/7.5% CL, 25 μM lipid): 8%
permeabilisation (calcein dye release) ([3]; PE/25%PG, 25 μM lipid (peptide/lipid 1/2.5)): 2%
dye release ([3]; POPC-based LUVs, 25 μM lipid): more than 70%
dye release ([3]; POPE-based LUVs, 25 μM lipid): more than 70%
MIC B. subtilis DSM 347 (B. subtilis DSM 347): 3 µM (≈ 2.96 µg/mL)
ΔH° (ITC binding to LUVs; 5 mM LUVs into 40 μM peptide, γ = 1): -12.0 kJ/mol
K 0 (hydrophobic partition coefficient) (ITC binding to LUVs; 5 mM LUVs titrated into 40 μM peptide, γ = 1): 5.5e+07 M⁻¹
ΔH° (ITC binding to LUVs; 10 mM LUVs into 40 μM peptide, γ = 0.5): -5.1 kJ/mol
K 0 (hydrophobic partition coefficient) (ITC binding to LUVs; 10 mM LUVs titrated into 40 μM peptide, γ = 0.5): 3.7e+06 M⁻¹
K 0 (hydrophobic partition coefficient) (ITC binding to LUVs; 5 to 10 mM LUVs titrated into 40 μM peptide, γ = 0.5): 1.4e+06 M⁻¹
ΔH° (ITC binding to LUVs; LUVs into 40 μM peptide, γ = 0.5): -24.3 kJ/mol
ΔG° (ITC binding to LUVs; [4]): -45.0 kJ/mol
ΔG° (ITC binding to LUVs; [5]): -54.1 kJ/mol
ΔG° (ITC binding to LUVs; LUVs of POPE/POPG (75/25 mol%)): -47.4 kJ/mol
-TΔS° (ITC binding to LUVs; [4]): -20.7 kJ/mol
-TΔS° (ITC binding to LUVs; [5]): -42.1 kJ/mol
-TΔS° (ITC binding to LUVs; LUVs of POPE/POPG (75/25 mol%)): -42.3 kJ/mol
toxicity towards mammalian cells (mammalian cells): no toxicity

Source: paper PMC4398456, “Evidence for a Novel Mechanism of Antimicrobial Action of a Cyclic R-,W-Rich Hexapeptide” (PLoS ONE, 2015)
